Experimental data from the supplement of paper PMC12463676, “Small-molecule dissolution of stress granules by redox modulation benefits ALS models” (Nature Chemical Biology, 2025).

What was measured:
[1] = compound: NC(=O)CCCCC1CCSS1 [lipoamide]; test: thermal stability z-score vs DMSO; higher = more thermally stabilized by treatment; details: HeLa, lipoamide concentration 100 µM
Method: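 Cellular thermal proteome profiling in HeLa cells. Cells were treated with 100 µM lipoamide for 1 h, with or without 1 mM arsenate for a further 1 h, then heated to ten temperatures (37-66.3 °C), and soluble protein was quantified by TMT mass spectrometry relative to 0.1% DMSO controls. The thermal stability score (sum of log2 fold changes minus the abundance score) was transformed to a z-score; mean of n = 3 experiments.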

[2] = compound: O=[As]([O-])(O)O.[K+] [potassium arsenate]; test: as above; details: HeLa; arsenate concentration 1 mM
Method: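 Cellular thermal proteome profiling in HeLa cells treated with 1 mM arsenate for 1 h (DMSO pretreatment), heated to ten temperatures (37-66.3 °C). Soluble protein was quantified by TMT mass spectrometry relative to DMSO controls; the thermal stability score was transformed to a z-score; mean of n = 3 experiments.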

[3] = arsenate co-treatment: 1 mM arsenate 1 h
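Further: each temperature applied for 3 min, abundance score taken as mean log2 fold change at the two lowest temperatures, z-score obtained by mean subtraction and division by SD.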

Sequence of UniProt Q9NPE2 (Q9NPE2 whole entry): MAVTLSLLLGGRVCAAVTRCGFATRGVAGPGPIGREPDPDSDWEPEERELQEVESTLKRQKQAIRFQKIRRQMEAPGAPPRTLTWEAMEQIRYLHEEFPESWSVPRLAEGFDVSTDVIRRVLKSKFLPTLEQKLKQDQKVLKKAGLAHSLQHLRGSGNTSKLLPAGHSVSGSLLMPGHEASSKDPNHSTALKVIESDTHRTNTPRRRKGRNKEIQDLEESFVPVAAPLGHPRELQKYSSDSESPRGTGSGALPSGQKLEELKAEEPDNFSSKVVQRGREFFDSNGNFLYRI
Sequence of UniProt Q12857 (Q12857 whole entry): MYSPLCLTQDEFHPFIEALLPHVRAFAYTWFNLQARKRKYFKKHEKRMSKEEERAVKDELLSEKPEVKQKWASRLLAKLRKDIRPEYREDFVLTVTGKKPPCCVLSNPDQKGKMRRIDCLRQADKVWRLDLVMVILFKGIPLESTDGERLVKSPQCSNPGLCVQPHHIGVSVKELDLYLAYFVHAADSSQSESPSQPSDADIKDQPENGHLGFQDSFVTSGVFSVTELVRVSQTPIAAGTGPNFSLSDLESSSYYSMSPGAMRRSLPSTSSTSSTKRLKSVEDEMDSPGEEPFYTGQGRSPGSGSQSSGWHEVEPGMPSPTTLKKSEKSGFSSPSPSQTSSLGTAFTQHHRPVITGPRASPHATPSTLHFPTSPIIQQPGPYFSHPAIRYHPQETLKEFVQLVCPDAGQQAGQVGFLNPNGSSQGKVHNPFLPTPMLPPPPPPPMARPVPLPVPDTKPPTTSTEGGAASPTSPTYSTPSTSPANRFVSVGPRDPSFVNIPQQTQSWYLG
Sequence of UniProt P08651 (P08651 whole entry): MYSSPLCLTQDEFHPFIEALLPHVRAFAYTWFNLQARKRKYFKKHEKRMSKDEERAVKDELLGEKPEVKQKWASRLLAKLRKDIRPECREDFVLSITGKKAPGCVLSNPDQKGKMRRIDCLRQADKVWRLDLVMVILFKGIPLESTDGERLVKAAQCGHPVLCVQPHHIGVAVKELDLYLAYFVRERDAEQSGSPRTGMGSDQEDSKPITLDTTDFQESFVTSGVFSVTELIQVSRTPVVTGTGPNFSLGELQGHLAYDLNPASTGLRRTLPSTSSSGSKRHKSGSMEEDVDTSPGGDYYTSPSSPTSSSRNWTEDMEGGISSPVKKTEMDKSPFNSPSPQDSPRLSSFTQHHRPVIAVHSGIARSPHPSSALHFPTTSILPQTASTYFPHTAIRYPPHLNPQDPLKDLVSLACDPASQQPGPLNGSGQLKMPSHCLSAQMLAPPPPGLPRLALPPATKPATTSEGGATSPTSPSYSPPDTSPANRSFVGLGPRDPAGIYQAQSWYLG
Sequence of UniProt Q9Y697 (Q9Y697 whole entry): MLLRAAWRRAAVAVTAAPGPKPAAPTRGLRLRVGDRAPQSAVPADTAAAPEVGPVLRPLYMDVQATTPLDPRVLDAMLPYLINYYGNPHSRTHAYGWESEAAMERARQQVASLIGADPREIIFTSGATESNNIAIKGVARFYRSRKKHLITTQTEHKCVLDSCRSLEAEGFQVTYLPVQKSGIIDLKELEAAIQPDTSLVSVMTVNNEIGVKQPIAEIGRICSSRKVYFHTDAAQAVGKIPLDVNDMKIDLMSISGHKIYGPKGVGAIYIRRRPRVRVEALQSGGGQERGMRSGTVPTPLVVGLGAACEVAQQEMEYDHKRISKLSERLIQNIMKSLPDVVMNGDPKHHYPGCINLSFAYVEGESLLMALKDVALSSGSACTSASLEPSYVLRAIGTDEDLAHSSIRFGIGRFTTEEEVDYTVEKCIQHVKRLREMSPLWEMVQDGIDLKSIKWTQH
Sequence of UniProt Q9NX24 (Q9NX24 whole entry): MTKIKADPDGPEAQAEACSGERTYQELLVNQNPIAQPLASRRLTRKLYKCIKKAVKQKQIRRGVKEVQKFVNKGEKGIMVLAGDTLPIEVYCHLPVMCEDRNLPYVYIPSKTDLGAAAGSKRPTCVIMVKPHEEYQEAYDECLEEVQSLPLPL
Sequence of UniProt P25208 (P25208 whole entry): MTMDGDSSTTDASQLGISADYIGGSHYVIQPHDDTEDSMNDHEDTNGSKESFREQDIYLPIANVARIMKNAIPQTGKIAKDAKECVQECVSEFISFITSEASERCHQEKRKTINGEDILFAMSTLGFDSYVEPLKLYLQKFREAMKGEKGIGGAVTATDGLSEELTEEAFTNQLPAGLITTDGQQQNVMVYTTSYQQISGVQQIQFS
Sequence of UniProt O75306 (O75306 whole entry): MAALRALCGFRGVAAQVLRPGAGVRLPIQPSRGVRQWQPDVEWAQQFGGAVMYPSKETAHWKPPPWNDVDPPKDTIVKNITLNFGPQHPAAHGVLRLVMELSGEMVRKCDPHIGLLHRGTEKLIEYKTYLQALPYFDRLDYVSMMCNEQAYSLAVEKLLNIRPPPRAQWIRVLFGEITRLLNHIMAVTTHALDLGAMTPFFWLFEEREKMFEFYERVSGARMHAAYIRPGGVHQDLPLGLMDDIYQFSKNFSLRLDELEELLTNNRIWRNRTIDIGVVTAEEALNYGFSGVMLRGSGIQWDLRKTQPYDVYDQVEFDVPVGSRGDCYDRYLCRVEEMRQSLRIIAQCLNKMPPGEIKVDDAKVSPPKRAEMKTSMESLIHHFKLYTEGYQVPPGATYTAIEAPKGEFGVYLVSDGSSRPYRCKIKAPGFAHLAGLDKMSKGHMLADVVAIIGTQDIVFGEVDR
Sequence of UniProt Q0ZGT2 (Q0ZGT2 whole entry): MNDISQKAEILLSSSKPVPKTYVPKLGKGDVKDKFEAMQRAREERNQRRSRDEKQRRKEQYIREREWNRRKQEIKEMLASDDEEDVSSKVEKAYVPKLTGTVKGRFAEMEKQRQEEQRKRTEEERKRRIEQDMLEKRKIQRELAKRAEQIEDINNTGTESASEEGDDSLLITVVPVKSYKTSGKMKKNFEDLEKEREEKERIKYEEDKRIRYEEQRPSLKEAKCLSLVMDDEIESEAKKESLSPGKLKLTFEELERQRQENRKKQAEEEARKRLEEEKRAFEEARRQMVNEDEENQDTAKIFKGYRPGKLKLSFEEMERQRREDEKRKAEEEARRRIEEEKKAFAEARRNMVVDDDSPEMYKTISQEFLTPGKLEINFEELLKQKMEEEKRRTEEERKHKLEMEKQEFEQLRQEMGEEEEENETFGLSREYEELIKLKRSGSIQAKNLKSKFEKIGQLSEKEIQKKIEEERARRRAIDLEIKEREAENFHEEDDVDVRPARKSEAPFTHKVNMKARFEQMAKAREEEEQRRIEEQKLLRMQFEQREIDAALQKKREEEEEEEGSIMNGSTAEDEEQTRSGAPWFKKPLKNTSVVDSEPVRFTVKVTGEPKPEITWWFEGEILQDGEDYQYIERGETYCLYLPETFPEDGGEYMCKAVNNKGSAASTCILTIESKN
Sequence of UniProt O75489 (O75489 whole entry): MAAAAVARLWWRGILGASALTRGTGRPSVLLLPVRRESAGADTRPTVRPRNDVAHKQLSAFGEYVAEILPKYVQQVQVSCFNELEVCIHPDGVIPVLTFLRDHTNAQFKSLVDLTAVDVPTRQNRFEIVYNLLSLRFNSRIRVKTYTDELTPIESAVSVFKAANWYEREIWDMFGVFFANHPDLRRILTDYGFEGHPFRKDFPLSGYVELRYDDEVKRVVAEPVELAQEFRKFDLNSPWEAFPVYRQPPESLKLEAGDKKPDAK
Sequence of UniProt O43181 (O43181 whole entry): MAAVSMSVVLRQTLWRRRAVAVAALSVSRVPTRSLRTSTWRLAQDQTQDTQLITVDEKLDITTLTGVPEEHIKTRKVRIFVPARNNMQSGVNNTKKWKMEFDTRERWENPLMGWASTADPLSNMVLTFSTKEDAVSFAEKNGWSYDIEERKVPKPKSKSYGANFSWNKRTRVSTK
Sequence of UniProt Q96PU5 (Q96PU5 whole entry): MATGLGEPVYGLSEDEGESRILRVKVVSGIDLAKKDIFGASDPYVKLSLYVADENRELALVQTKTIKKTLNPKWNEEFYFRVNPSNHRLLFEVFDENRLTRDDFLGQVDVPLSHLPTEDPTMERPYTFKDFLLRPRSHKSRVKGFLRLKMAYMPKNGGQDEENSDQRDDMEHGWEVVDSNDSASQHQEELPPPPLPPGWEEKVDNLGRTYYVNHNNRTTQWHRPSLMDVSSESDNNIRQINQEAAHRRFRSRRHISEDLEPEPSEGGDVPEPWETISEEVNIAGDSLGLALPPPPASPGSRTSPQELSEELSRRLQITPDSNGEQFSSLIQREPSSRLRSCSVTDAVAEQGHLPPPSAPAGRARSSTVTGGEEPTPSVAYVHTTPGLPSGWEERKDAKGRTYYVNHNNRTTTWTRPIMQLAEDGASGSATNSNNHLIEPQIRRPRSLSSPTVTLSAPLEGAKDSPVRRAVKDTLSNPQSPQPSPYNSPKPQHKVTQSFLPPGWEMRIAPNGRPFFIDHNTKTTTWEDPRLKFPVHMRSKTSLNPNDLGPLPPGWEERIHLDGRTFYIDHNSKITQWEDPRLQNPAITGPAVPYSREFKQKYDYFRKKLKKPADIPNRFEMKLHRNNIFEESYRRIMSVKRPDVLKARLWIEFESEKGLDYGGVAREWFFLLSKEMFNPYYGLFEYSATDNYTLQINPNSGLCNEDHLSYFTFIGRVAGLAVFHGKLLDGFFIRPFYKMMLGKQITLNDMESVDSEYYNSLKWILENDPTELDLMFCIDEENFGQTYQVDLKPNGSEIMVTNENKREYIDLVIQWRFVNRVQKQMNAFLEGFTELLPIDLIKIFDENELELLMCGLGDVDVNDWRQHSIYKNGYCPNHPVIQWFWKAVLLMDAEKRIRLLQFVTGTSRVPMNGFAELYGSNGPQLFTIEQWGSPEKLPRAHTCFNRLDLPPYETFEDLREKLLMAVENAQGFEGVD
Sequence of UniProt Q9Y221 (Q9Y221 whole entry): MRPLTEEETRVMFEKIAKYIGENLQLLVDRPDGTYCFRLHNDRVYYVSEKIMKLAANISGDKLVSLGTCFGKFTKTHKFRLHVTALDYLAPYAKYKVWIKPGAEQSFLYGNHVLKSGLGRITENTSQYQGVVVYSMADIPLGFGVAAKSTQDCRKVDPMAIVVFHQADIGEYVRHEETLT

Target	thermal stability z-score [1, 3]	thermal stability z-score ([1]; arsenate co-treatment: none)	thermal stability z-score [2]
NDUFAF7 (UniProt Q7L592)	-0.486	-0.171	0.288
NDUFB3 (UniProt O43676)	0.00119	-0.236	0.36
NDUFB4 (UniProt O95168)	0.137	0.173	0.489
NDUFB5 (UniProt O43674)	-0.958	-0.151	0.226
NDUFB6 (UniProt O95139)	0.071	0.306	0.873
NDUFB7 (UniProt P17568)	-0.619	-0.28	-0.462
NDUFB8 (UniProt O95169)	0.714	1.42	0.119
NDUFB9 (UniProt Q9Y6M9)	0.158	-0.175	-0.937
NDUFB10 (UniProt O96000)	-0.509	-0.759	0.18
NDUFB11 (UniProt Q9NX14)	0.566	0.514	0.94
NDUFC2 (UniProt O95298)	1.34	0.996	2.15
NDUFS1 (UniProt P28331)	0.106	0.134	0.842
NDUFS2 (UniProt O75306)	-0.481	-0.617	-0.577
NDUFS3 (UniProt O75489)	-0.384	0.139	-0.466
NDUFS4 (UniProt O43181)	0.511	0.477	0.201
NDUFS5 (UniProt O43920)	-0.473	-0.963	0.133
NDUFS6 (UniProt O75380)	-0.253	0.123	-0.244
NDUFS7 (UniProt O75251)	0.142	0.157	0.149
NDUFS8 (UniProt O00217)	-0.474	-0.512	-0.279
NDUFV1 (UniProt P49821)	0.281	0.0892	0.585
NDUFV2 (UniProt P19404)	0.418	-0.0827	0.966
NDUFV3 (UniProt P56181)	0.238	0.504	-0.157
NECAP1 (UniProt Q8NC96)	0.133	0.451	-0.194
NECAP2 (UniProt Q9NVZ3)	0.16	-0.169	-0.238

Target	thermal stability z-score [1, 3]	thermal stability z-score ([1]; arsenate co-treatment: none)	thermal stability z-score [2]
NECTIN2 (UniProt Q92692)	0.434	0.196	0.0945
NECTIN3 (UniProt Q9NQS3)	-0.126	-0.303	0.432
NEDD1 (UniProt Q8NHV4)	0.124	0.153	0.216
NEDD4 (UniProt P46934)	0.296	0.196	-0.128
NEDD4L (UniProt Q96PU5)	-0.314	-0.354	0.0653
NEFH (UniProt P12036)	-0.156	-0.292	0.4
NEGR1 (UniProt Q7Z3B1)	0.758	-0.0845	-0.617
NEK6 (UniProt Q9HC98)	-0.181	-0.266	-0.209
NEK7 (UniProt Q8TDX7)	-0.813	-0.453	-0.53
NEK9 (UniProt Q8TD19)	-0.25	-0.366	0.719
NELFA (UniProt Q9H3P2)	-0.1	-0.0674	-0.107
NELFB (UniProt Q8WX92)	-0.286	0.576	-0.0666
NELFE (UniProt P18615)	0.0818	0.467	0.293
NEMF (UniProt O60524)	-0.153	-0.18	0.135
NEMP1 (UniProt O14524)	-0.805	-0.823	0.154
NENF (UniProt Q9UMX5)	0.318	-0.406	-0.0969
NEU1 (UniProt Q99519)	-0.363	-0.25	0.921
NEURL4 (UniProt Q96JN8)	-0.125	0.0814	0.00875
NEXN (UniProt Q0ZGT2)	0.00122	0.037	0.0665
NF1 (UniProt P21359)	-0.487	-0.235	-0.72
NF2 (UniProt P35240)	0.402	0.235	-0.309
NFAT5 (UniProt O94916)	0.48	0.0594	1.37
NFATC2IP (UniProt Q8NCF5)	-0.124	-0.127	-0.254
NFIA (UniProt Q12857)	-1.05	-1.1	-0.647

Target	thermal stability z-score [1, 3]	thermal stability z-score ([1]; arsenate co-treatment: none)	thermal stability z-score [2]
NFIB (UniProt O00712)	-1.17	-0.437	-0.0229
NFIC (UniProt P08651)	0.26	0.173	-0.494
NFKB1 (UniProt P19838)	0.0975	0.14	-0.274
NFKB2 (UniProt Q00653)	-0.498	0.158	0.523
NFKBIB (UniProt Q15653)	-0.344	-0.271	0.948
NFS1 (UniProt Q9Y697)	-0.356	-0.438	-1.15
NFU1 (UniProt Q9UMS0)	0.559	0.402	0.227
NFX1 (UniProt Q12986)	-1.53	-1.5	-3.38
NFXL1 (UniProt Q6ZNB6)	-0.724	-0.558	-0.813
NFYA (UniProt P23511)	0.401	-0.0763	-0.528
NFYB (UniProt P25208)	0.446	0.825	-0.691
NFYC (UniProt Q13952)	0.024	0.385	-0.0961
NGLY1 (UniProt Q96IV0)	-0.149	-0.0587	0.0507
NGRN (UniProt Q9NPE2)	0.637	0.0666	-0.378
NHLRC2 (UniProt Q8NBF2)	-0.233	0.152	-2.19
NHP2 (UniProt Q9NX24)	-0.434	-0.739	-0.721
NHS (UniProt Q6T4R5)	-0.604	0.0609	-0.851
NHSL1 (UniProt Q5SYE7)	0.0509	0.218	0.0815
NIF3L1 (UniProt Q9GZT8)	-0.14	-0.407	0.115
NIFK (UniProt Q9BYG3)	1.5	0.467	-1.78
NIP7 (UniProt Q9Y221)	0.337	-0.869	-0.111
NIPA2 (UniProt Q8N8Q9)	0.499	0.101	0.36
NIPBL (UniProt Q6KC79)	-0.0211	-0.00358	-0.167
